In US20110172193A1, “PRO-DRUGS OF (E)-7-(3-(2-AMINO-1-FLUOROETHYLIDENE)PIPERIDIN-1-YL)-1-CYCLOPROPYL-6-FLUORO-8-METHOXY-4-OXO-1,4-DIHYDROQUINOLINE-3-CARBOXYLIC ACID” (priority 2010, published 2011):
Where two headings read alike, the source gives them in different places.

Key:
[1] = Clarity of test compound solutions at […] (aqueous solubility); conditions: for solubility at 24 h: 50 mM citrate buffer, pH 4, aqueous buffer, thermodynamic from solid; for Aqueous Solubility pH~7 (visual clarity): […] active-form equivalents, pH 7 (50 mM phosphate), after 24 hours
Method: A 50-mg/mL solution of a compound of formula (I) or a compound of formula (II) in H2O was titrated with 0.1 M NaOH until pH reached 5.7-6.1. Any solid that precipitated was filtered. The remaining solutions or phase-separated oil/H2O mixtures were freeze-dried to produce zwitterions as fluffy solids.
The aqueous solubility of Compounds #14, #15 and #16 were determined by a modified procedure. In these cases, the samples were targeted at a pH of 4 and 7 and were measured exclusively using 100 mM phosphate buffers. For both pH's, measured samples were initially prepared at ˜3 mg/ml and ˜10 mg/ml concentrations and for samples that dissolved rapidly, additional compound was added to the solution until saturated solutions were obtained.

[2] = In vitro bioconversion of pro-drug to parent drug in mouse blood, plasma, liver and kidney extract; type: in vitro ADME; conditions: for Peak Area of pro-drug: 37° C. incubator; for Conversion to the parent compound (summary in words): mouse whole blood, liver/kidney extracts, plasma
Method: Compound concentrations were normalized to parent drug content by multiplying by a ratio of the relative molecular weights. Time 0 (minute) samples were prepared by immediately diluting with an equal volume of acetonitrile, vortexing, and transferring the samples to ice. […] Representative compounds of the present invention and the parent compound were analyzed by reversed-phase HPLC using an Agilent 1100 system. […] The solvent flow rate was 1 mL/min, and the column temperature was 40° C. Compound and parent peak identification was by diode array detection, monitored at 300 nm Conversion of the compounds (prodrugs) to parent drug was estimated by peak areas (A300 nm, mAU) of the respective agents. Mouse whole blood and plasma were collected from Swiss Webster mice, and stored at 4° C. until use (within 48 hours). […] For these experiments, fresh whole mouse livers or kidneys were homogenized for approximately 30 seconds (Omni-Tip™ disposable homogenizer tip) in 1 mL sterile saline and immediately stored on ice. Crude extracts (non-centrifuged) were incubated with the test compound or parent (20 μg/mL) and processed as described above.

[3] = In vitro bioconversion of pro-drug to parent drug in human blood and plasma; type: in vitro ADME; conditions: for Peak Area of pro-drug: 37° C.; for Conversion to the parent compound (summary in words): human whole blood and plasma
Method: Compounds #1, #4, #6, #15, and #16, as well as the parent drug [(E)-7-(3-(2-amino-1-fluoroethylidene)piperidin-1-yl)-1-cyclopropyl-6-fluoro-8-methoxy-4-oxo-1,4-dihydroquinoline-3-carboxylic acid] (the compound of formula (M)) were dissolved to 1 mg/mL, and diluted to 20 ng/mL in fresh, chilled (4° C.) human or mouse whole blood or plasma, or kidney and liver extract (prepared from the respective fresh mouse organs as described below). Compound concentrations were normalized to parent drug content by multiplying by a ratio of the relative molecular weights. Time 0 (minute) samples were prepared by immediately diluting with an equal volume of acetonitrile, vortexing, and transferring the samples to ice. For additional time points, samples were placed in an incubator (Tables 4 and 5), or in a heating block (Tables 6-12) at 37° C. for the indicated time, then immediately vortexed with an equal volume of acetonitrile and placed on ice. Samples were centrifuged and further diluted with an equal volume of water to a final concentration of 25% acetonitrile prior to analysis by HPLC; diluted samples were retained in the cooled (4° C.) HPLC sample injection chamber pending injection.
Representative compounds of the present invention and the parent compound were analyzed by reversed-phase HPLC using an Agilent 1100 system. Samples were injected onto a Zorbax SB-C18 column (3.5 μM, 4.6×150 mm) with a guard cartridge, and developed on a gradient of 15% aqueous acetonitrile in 0.1% trifluoroacetic acid to 85% aqueous acetonitrile in 0.1% trifluoroacetic acid over 10 minutes. The solvent flow rate was 1 mL/min, and the column temperature was 40° C. Compound and parent peak identification was by diode array detection, monitored at 300 nm Conversion of the compounds (prodrugs) to parent drug was estimated by peak areas (A300 nm, mAU) of the respective agents.
For studies with Compounds #1, #4 and #6 (with results as listed in Tables 8, 9 and 10), fresh human whole blood and plasma samples were purchased from BioChemed Services, shipped in Styrofoam coolers maintained with frozen cold packs, and used within 48 hours of receipt. For studies with Compounds #15 and #16 (with results as listed in Tables 11 and 12), blood was drawn from volunteers and whole blood samples and isolated plasma prepared and immediately placed on ice. Whole blood and plasma samples were maintained at 4° C. and used within approximately 30 hours.

[4] = test system: Staphylococcus aureus (OC8525), a methicillin-resistant strain (MRSA); assay: In vivo efficacy in a mouse systemic infection model; conditions: for ED50: Staphylococcus aureus, 72 h, Swiss Webster mice infected i.p. with MRSA, 3 day survival, normalized to parent content
Method: Female Swiss Webster mice weighing between 20-25 g were infected intraperitoneally with approximately 5×10^5 colony forming units (CFU) Staphylococcus aureus (OC8525), a methicillin-resistant strain (MRSA), in 7% mucin. One hour later, the animals were given the test compound intravenously or orally in a dose volume of 0.2 mL. Each animal test group consisted of eight animals. The test compounds were prepared immediately before dosing in 5% dextrose in water (D5W) and diluted further in D5W for i.v. and p.o. administration. The mice were observed over a three day period and ED50 values were calculated from the resulting % survival curves (see Table 13, below). The measured ED50 values were normalized to the content of (E)-7-(3-(2-amino-1-fluoroethylidene)piperidin-1-yl)-1-cyclopropyl-6-fluoro-8-methoxy-4-oxo-1,4-dihydroquinoline-3-carboxylic acid. For some compounds, in vivo efficacy was determined by testing a group of eight mice at a single dose level only. In these cases, the data presented in Table 13, below are reported as percent survival at the designated dose.

[5] = Aqueous solubility, modified procedure (saturated solutions, RP-HPLC); type: physicochemical; conditions: thermodynamic from solid, 100 mM phosphate buffer
[6] = homogenized mouse kidney, 0 min
[7] = homogenized mouse kidney, 5 min
[8] = homogenized mouse kidney, 30 min
[9] = homogenized mouse liver, 30 min
[10] = fresh human blood (purchased), 0.0 min
[11] = fresh human plasma (purchased), 0.0 min
[12] = fresh human plasma (purchased), 5.0 min
[13] = fresh human plasma (purchased), 15.0 min
[14] = fresh human plasma (purchased), 30.0 min
[15] = oral dose 1 h later, read-out: ED50 p.o.
[16] = iv, i.v. dose 1 h later, read-out: ED50 i.v.

Row | solubility at 24 h [1] | Aqueous Solubility pH~7 (visual clarity) [1] | Peak Area of pro-drug ([2]; fresh mouse plasma, 0 min) | Peak Area of pro-drug ([2]; fresh mouse plasma, 5 min) | Peak Area of pro-drug ([2]; fresh mouse plasma, 30 min) | Peak Area of pro-drug [2, 6] | Peak Area of pro-drug [2, 7] | Peak Area of pro-drug [2, 8] | Peak Area of pro-drug ([2]; homogenized mouse liver, 0 min) | Peak Area of pro-drug ([2]; homogenized mouse liver, 5 min) | Peak Area of pro-drug [2, 9] | Conversion to the parent compound (summary in words) [2] | Peak Area of pro-drug [3, 10] | Peak Area of pro-drug [3, 11] | Peak Area of pro-drug [3, 12] | Peak Area of pro-drug [3, 13] | Peak Area of pro-drug [3, 14] | Conversion to the parent compound (summary in words) [3] | SMILES | ED50 [4, 15] | ED50 [4, 16] | further results
1 | < 3300 µg/mL | No | 298 mAU | 296 mAU | 286 mAU | 222 mAU | 152 mAU | 41 mAU | 235 mAU | 171 mAU | 51 mAU | converted to the parent compound | 365 mAU | 401 mAU | 386 mAU | 369 mAU | 371 mAU | converted to the parent compound | COc1c(N2CCC/C(=C(\F)CNC(=O)[C@@H](N)C(C)C)C2)c(F)cc2c(=O)c(C(=O)O)cn(C3CC3)c12.Cl [Compound 1, 7-{3-[2-((2S)-2-Amino-3-methyl-butyrylamino)-1-fluoro-ethylidene]-piperidin-1-yl}-1-cyclopropyl-6-fluoro-8-methoxy-4-oxo-1,4-dihydro-quinoline-3-carboxylic acid hydrochloride] | 9.9 mg/kg | 1.3 mg/kg | Peak Area of pro-drug ([3]; fresh human blood (purchased), 3.0 min): 339 mAU; Peak Area of pro-drug ([3]; fresh human blood (purchased), 5.5 min): 339 mAU; Peak Area of pro-drug ([3]; fresh human blood (purchased), 8.0 min): 328 mAU; Peak Area of pro-drug ([3]; fresh human blood (purchased), 10.5 min): 289 mAU; Peak Area of pro-drug ([3]; fresh human blood (purchased), 15.5 min): 256 mAU
2 | > 3300 µg/mL | No | – | – | – | – | – | – | – | – | – | converted to the parent compound | 401 mAU | 442 mAU | 383 mAU | 339 mAU | 268 mAU | converted to the parent compound | COc1c(N2CCC/C(=C(\F)CNC(=O)[C@H](C)N)C2)c(F)cc2c(=O)c(C(=O)O)cn(C3CC3)c12.Cl [Compound 4, 7-{3-[2-((2S)-2-Amino-propionylamino)-1-fluoro-ethylidene]-piperidin-1-yl}-1-cyclopropyl-6-fluoro-8-methoxy-4-oxo-1,4-dihydro-quinoline-3-carboxylic acid hydrochloride] | 19.8 mg/kg | 0.7 mg/kg | Peak Area of pro-drug ([3]; fresh human blood (purchased), 4.0 min): 205 mAU; Peak Area of pro-drug ([3]; fresh human blood (purchased), 6.5 min): 123 mAU; Peak Area of pro-drug ([3]; fresh human blood (purchased), 9.0 min): 79 mAU; Peak Area of pro-drug ([3]; fresh human blood (purchased), 11.5 min): 84 mAU; Peak Area of pro-drug ([3]; fresh human blood (purchased), 16.5 min): 68 mAU
3 | < 3300 µg/mL | No | 363 mAU | 329 mAU | 281 mAU | 219 mAU | 72 mAU | 11 mAU | 254 mAU | 143 mAU | 34 mAU | converted to the parent compound | 369 mAU | 393 mAU | 386 mAU | 399 mAU | 393 mAU | converted to the parent compound | COc1c(N2CCC/C(=C(\F)CNC(=O)CN)C2)c(F)cc2c(=O)c(C(=O)O)cn(C3CC3)c12.Cl [Compound 6, 7-{3-[2-(2-Amino-acetylamino)-1-fluoro-ethylidene]-piperidin-1-yl}-1-cyclopropyl-6-fluoro-8-methoxy-4-oxo-1,4-dihydro-quinoline-3-carboxylic acid hydrochloride] | > 17.6 mg/kg | 0.6 mg/kg | Peak Area of pro-drug ([3]; fresh human blood (purchased), 3.5 min): 290 mAU; Peak Area of pro-drug ([3]; fresh human blood (purchased), 6.0 min): 188 mAU; Peak Area of pro-drug ([3]; fresh human blood (purchased), 8.5 min): 159 mAU; Peak Area of pro-drug ([3]; fresh human blood (purchased), 11.0 min): 134 mAU; Peak Area of pro-drug ([3]; fresh human blood (purchased), 16.0 min): 95 mAU
4 | – | – | – | – | – | – | – | – | – | – | – | – | – | – | – | – | – | – | COc1c(N2CCC/C(=C(\F)CNC(=O)[C@@H](N)CN(C)C)C2)c(F)cc2c(=O)c(C(=O)O)cn(C3CC3)c12.Cl.Cl [Compound 14, 7-{3-[2-((2S)-2-Amino-3-dimethylamino-propionylamino)-1-fluoro-ethylidene]-piperidin-1-yl}-1-cyclopropyl-6-fluoro-8-methoxy-4-oxo-1,4-dihydro-quinoline-3-carboxylic acid dihydrochloride] | – | – | solubility at 18 h ([5]; pH 4, aqueous buffer, read-out: Aqueous Solubility pH~4): 6890 µg/mL; solubility at 18 h ([5]; pH 7, aqueous buffer, read-out: Aqueous Solubility pH~7): > 3000 µg/mL; % Survival ([4]; i.v., at 2.0 mg/kg/day, mice): 12.5% at 2.0 mg/kg/day
